Measurements taken from patent US6935334B2, “Enhancing therapeutic effectiveness of nitric oxide inhalation” (The General Hospital Corporation, priority 2000, dated 2005).

Experiments:
Assay type in all cases: in vivo, mouse
[1] = tested on: hypoxic pulmonary vasoconstriction (HPV) in mice; assay: Redistribution of pulmonary blood flow (QLPA/QPA) after left mainstem bronchus occlusion (LMBO), murine HPV model
Procedure: Group 3: endotoxin-treated+L-NIL. SV129/B6F1 wild-type mice (n=5) were injected intraperitoneally with 10 mg/kg E. coli 011B4 endotoxin dissolved in 0.2 mL saline. Three hours after the endotoxin challenge, mice were treated with L-NIL 5 mg/kg intraperitoneally. Studies were performed 22 hours after the endotoxin challenge. In additional SV129/B6F1 mice with (n=5) and without (n=4) a prior challenge of endotoxin (22 hours earlier), the acute response to an intravenous bolus of 5 mg/kg L-NIL administered during LMBO, was studied.
Group 4: prolonged exposure to 4 or 40 ppm NO. Saline-treated SV129 wild-type mice (n=5) and NOS2-deficient mice (n=5) breathed 40 ppm NO in air for 22 hours and were studied 1 hour after discontinuation of NO inhalation. SV129 wild-type mice (n=5) and NOS2-deficient mice (n=5) breathed 40 ppm NO in air for 22 hours after challenge with 10 mg/kg endotoxin intraperitoneally and were studied 1 hour after discontinuation of NO inhalation. Additional NOS2-deficient mice (n=4) breathed 4 ppm of NO in air for 22 hours after challenge with 10 mg/kg endotoxin intraperitoneally and were studied 1 hour after discontinuation of NO inhalation.
Experimental preparation. Mice were anesthetized by intraperitoneal injection of ketamine (0.1 mg/g body weight [bw]). Tracheostomy and arterial catheterization were performed as described previously (Steudel et al., 1997, Circ. Res. 81:34-41). A custom-made endotracheal tube (22G Angiocath; Becton Dickinson Healthcare Systems, Sandy, Utah, USA), combined with a 2 French Fogarty arterial embolization catheter (Baxter Healthcare Corp., Irvine, Calif., USA) was inserted into the trachea, with the balloon tip of the Fogarty catheter initially remaining in the trachea. Volume-controlled ventilation was initiated at a respiratory rate of 110-120 breaths per minute, at FiO2 1.0, a peak inspiratory pressure of 13 cm H2O, and a positive end-expiratory pressure level of 2-3 cm H2O. A right parasternal thoracotomy was performed, and a small-vessel ultrasonic flow probe (1RB; Transonic Instruments, Ithaca, N.Y.) was placed around the right pulmonary artery and fixed in position using a micromanipulator (X-tra Hand; TechniTool, Plymouth, Pa.). A 4-0 silk suture was positioned around the left main pulmonary artery to allow transient vascular occlusion. A pulmonary artery catheter (PE10) was inserted into the main pulmonary artery by direct puncture. In other experiments, a lower thoracic aortic flow probe was placed as reported previously (Steudel et al., supra).
Blood flow and pressure measurements. Mean systemic arterial pressure (PSA), mean pulmonary artery pressure (PPA), and in some studies PLA, were continuously monitored using biomedical amplifiers (Hewlett Packard 8805C, Palo Alto, Calif.; Siemens Sirecust 960, Danvers, Mass.). Mean lower thoracic aortic flow (QLTAF) and right pulmonary artery flow (QRPA) were measured with small vessel flow probes connected to a flowmeter (T106; Transonic Instruments). In some experiments, left ventricular end-diastolic pressure was measured with a 1.4 Fr. Millar catheter. The catheter was advanced through the right carotid artery into the left ventricle. […] All monitoring equipment was calibrated before each experiment.
Differential measurement of left and right pulmonary artery flow. To assess the contribution of QRPA and left pulmonary artery flow (QLPA) to total pulmonary artery flow (QPA), transient occlusion (90 seconds) of the left pulmonary artery (QLPA) was performed. QRPA during acute left pulmonary artery occlusion was considered to be QPA (i.e., cardiac output) and correlated closely (r2=0.88; y=0.95x+0.38; n=9) with QLTAF. QLPA was calculated as the difference between QRPA during left pulmonary artery occlusion (QPA) and QRPA with a patent left pulmonary artery (QLPA=QPA−QRPA). Absolute values of respective flows were recorded, and the fractional distribution of flow to the right and left lungs (QRPA/QPA and QLPA/QPA) was calculated. […]

[2] = Wet-to-dry lung weight ratio after isolated lung perfusion (Example 1); conditions: exposure to NO inhalation for 16 h
Procedure: Wet-to-Dry Lung Weight Ratio At the end of each experiment, both lungs, excluding hilar structures, were excised and weighed (wet weight). Thereafter, the lungs were dried in a microwave oven for 60 min, as previously described (Holzmann et al., supra), and then reweighed (dry weight). Wet-to-dry lung weight ratios were calculated by dividing the wet weight by the dry weight.

[3] = Lung wet/dry ratio (Example 2); conditions: breathing 4 or 40 ppm NO for 22 hours
Procedure: Lung wet/dry ratio. After euthanasia with pentobarbital (0.1 mg/g intraperitoneally), both lungs, excluding hilar structures, were excised, blotted, and immediately weighed. Thereafter, the tissue was dried in a microwave oven for 60 minutes, as described previously (20), and reweighed. Lung wet/dry ratio was calculated.

[N]=O [NO, Nitric oxide]
reduction of QLPA/QPA after LMBO ([1]; endotoxin-treated NOS2-deficient mice after prolonged inhalation of 40 ppm NO for 22 hours): 20±7% | reduction of QLPA/QPA after LMBO ([1]; endotoxin-treated NOS2-deficient mice breathing 4 ppm NO for 22 hours): 62±2% | reduction of QLPA/QPA after LMBO ([1]; endotoxin-treated wild-type mice breathing 40 ppm NO for 22 hours): 19±10% | reduction of QLPA/QPA after LMBO ([1]; saline-treated NOS2-deficient mice after breathing 40 ppm NO for 22 hours, measured 1 hour later): 50±11% | reduction of QLPA/QPA after LMBO ([1]; saline-treated wild-type mice after breathing 40 ppm NO for 22 hours, measured 1 hour later): 51±10% | wet-to-dry lung weight ratio ([2]; lipopolysaccharide-pretreated NOS2-deficient mice): 5.1±0.2 | wet-to-dry lung weight ratio ([2]; lipopolysaccharide-pretreated wild-type mice): 4.9±0.1 | wet-to-dry lung weight ratio ([2]; untreated NOS2-deficient mice): 4.8±0.1 | wet-to-dry lung weight ratio ([2]; untreated wild-type mice): 4.5±0.3 | wet/dry lung weight ratios [3]: did not alter
